The values that follow come from patent US20050221987A1, “Use of certain phospholipids to deliver hormonal effects to plants” (priority 2004, published 2005).

“And” between values parts separate entries of the source, which are not always exact repeats. Equal values may be shown once.

The subject of experiment [1] is radish cotyledons. As to the kind of experiment: Radish cotyledon bioassay (kinetin-induced expansion growth and chlorophyll content). Type of experiment: in vivo, Raphanus sativus L. cv. Cherry-Belle. As to conditions: for Type of hormone-like activity: radish cotyledon bioassay. As for the experimental part: Radish cotyledon bioassay. The radish cotyledon bioassay was essentially as described by Letham D S (1971) Physiologia Plantarum 25:391-396, which is herein incorporated by reference in its entirety. Seeds of Raphanus sativus L. cv. Cherry-Belle were germinated in darkness at 25° C. for 36 hours in Petri dishes containing filter paper wetted with distilled water. The smaller of the two cotyledons was excised, the fresh weight determined, and 10 cotyledons placed adaxial side down on filter paper in Petri dishes containing potassium phosphate buffer (2 mM, pH 6.0) with kinetin (0.2 mg/L, added to simulate natural growing conditions) and the compounds to be tested at 20 mg/L. Cotyledons were then incubated under continuous illumination up to 72 hours at 25° C. and the increase in fresh weight determined. Chlorophyll content was determined after extraction of tissue into 80% ethanol (containing butylated hydroxytoluene, 10 mg/L) and quantified spectrophotometrically using the equations Chl a=(13.95A663)−(6.88A647) and Chl b=(24.96A652)−(7.32A663) as described by Lichtenthal H K (1987) Methods in Enzymology 148:350-382, which is herein incorporated by reference in its entirety.

Another experiment deals with Bolivian Rainbow Peppers. As to the kind of experiment: Color impact on hot pepper (greenhouse). Type of experiment: in vivo. As for the experimental part:
The color impact of NALPE-2 on hot pepper. Potted ornamental peppers (var. Bolivian Rainbow Peppers) in laboratory greenhouses located in Middleton, Wis. were treated with NALPE-2 (50 mg/L). […] 40-50 fruits were tagged and labeled. The pepper color stage was noted prior to application and two plants were used. Ambient conditions in the greenhouse at the time of application were about 80° F. and 70% relative humidity. Drying time was approximately 0.5 hr. After 14 days the peppers were harvested and color group sorting was performed.

The test system of experiment [2] is radish cotyledons. As to the kind of experiment: Radish cotyledon bioassay (kinetin-induced expansion growth and chlorophyll content). The format is in vivo, Raphanus sativus L. cv. Cherry-Belle. As to conditions: kinetin 0.2 mg/l, 72 hours; for Change in fresh weight: n = 9.
Experiment [3] deals with Hydroponic tomatoes (var. Trust). As to the kind of experiment: Color impact on tomato (greenhouse spray). The format is in vivo. As for the experimental part:
The color impact of NALPE-2 on tomato. Hydroponic tomatoes (var. Trust) in a commercial greenhouse located in Arena, Wis. were treated with NALPE-2 (50 mg/L) using a hand pump spray bottle. Five tomato clusters each with 3-5 fruit in the early ripening stages (breaker) were used. The clusters were sprayed such that little overspray left the immediate area as to not contaminate other vines. Ambient conditions in the greenhouse at the time of application were about 75° F. and 70% relative humidity, full sun. Drying time was approximately 0.5 hr. Fruit were harvested after 7 days and transported to the laboratory for visual color comparison.

In the next experiment the test system is radish hypocotyls. The experiment is described as follows: Radish hypocotyl bioassay for anthocyanins. The format is in vivo, Raphanus sativus L. cv. Cherry-Belle. As for the experimental part: Radish hypocotyl bioassay for anthocyanins. An anthocyanin bioassay was developed using intact germinated seeds of radish (Raphanus sativus L. cv. Cherry-Belle). Seeds of radish were germinated in darkness at 25° C. for 40 hours in Petri dishes containing filter paper wetted with distilled water. Whole seedlings were transferred to Petri dishes containing the test solutions in potassium phosphate buffer (2 mM, pH 6.0 containing 0.2 mg/L kinetin to simulate natural growing conditions). The seedlings were incubated under bright light for 28 h prior to extraction of hypocotyl tissue and spectrophotometric quantification of anthocyanins. Anthocyanin content was determined spectrophotometrically after tissue extraction into 99 parts ethanol and 1 part concentrated HCl. The absorbance of the acidic ethanol fraction was measured at 510 nm and the final anthocyanin content calculated using an extinction coefficient of 31.76 mmol cm^−1 for raphanisuns (Ishikura N. and Hayashi K. Chromatographic separation and characterization of the component anthocyanins in radish root. Botanical Magazine Tokyo 76:6-13, 1963, which is herein incorporated by reference in its entirety).

Where [4] appears, read: NALPE-2 50 mg/L applied 14 days prior to harvest, Bolivian Rainbow Peppers.
[5] abbreviates: NALPE-2 50 mg/L applied 7 days prior to harvest, tomatoes.
Setting [6] is: NAPE-2 20 mg/L, kinetin 0.2 mg/l, 72 hours.

With “N-acetyl lysophosphatidylethanolamine [NALPE-2]”, the “Change in fresh weight, % of control” value with radish cotyledons [1] (NALPE-2 20 mg/l, kinetin 0.2 mg/l, 72 hours) is recorded as 66 % of control. The “Change in fresh weight” value in the experiment with radish cotyledons [1] (NALPE-2 20 mg/l, kinetin 0.2 mg/l, 72 hours, n = 9) is 9.88 ± 4.93 mg. The “Effect on expansion growth of radish cotyledons” value in the experiment on radish cotyledons [1] (Table 2, dependent upon concentration) is given as “inhibitory activity”. The “Type of hormone-like activity” value in the experiment with radish cotyledons [1] is “ethylene-like activity”. In the experiment with Bolivian Rainbow Peppers (setting [4]), the “Color Stage Blue” value turned out to be 22%, the “Color Stage Orange” value came out at 20%, the “Color Stage Purple” value came to 19% and the “Color Stage Red” value came out at 32%. For the same substance, the “Color Stage Yellow” value in the experiment with Bolivian Rainbow Peppers (setting [4]) is reported as 6%. Moreover, the “Effect on color development in hot peppers” value in the experiment on Bolivian Rainbow Peppers (Table 5) was “accelerated color development”. In addition, in the experiment with radish cotyledons [2] (NALPE-2 0.2 mg/l), the “Change in fresh weight, % of control” value is 92 % of control and the “Change in fresh weight” value is given as 13.68 ± 4.79 mg. Besides, in the experiment on radish cotyledons [2] (NALPE-2 200 mg/l), the “Change in fresh weight, % of control” value is 58 % of control and the “Change in fresh weight” value is on record as 8.64 ± 5.46 mg. In addition, in experiment [3] (setting [5]), the “Color Stage Light Red” value is 17%; the “Color Stage Others (breaker, turning, and pink stage)” value is 16%; the “Color Stage Red” value was 67%. Moreover, in experiment [3] (text summary of Table 4), the “Effect on color development in tomatoes” value is reported as “accelerated color development”. In the experiment on radish hypocotyls (NALPE-2 15 mg/l, kinetin 0.2 mg/l, 25° C., 28 hours, n = 4), this substance displayed an Anthocyanin of 2.637 ± 0.005 μg/hypocotyl. Also, the “Anthocyanin, % of control” value in the experiment on radish hypocotyls (NALPE-2 15 mg/l, kinetin 0.2 mg/l, 28 hours) is recorded as 125 % of control. Moreover, the “Effect on anthocyanin pigment in radish hypocotyls” value with radish hypocotyls (summary of Table 3) is “enhanced the amount of anthocyanin pigment”.

On to “N-acetylphosphatidylethanolamine [NAPE-2]”, for which, in the experiment with radish cotyledons [1], the “Effect on total amount of chlorophyll during radish cotyledon expansion” value is “did not change the total amount of chlorophyll” and the “Type of hormone-like activity” value was “cytokinin-like activity”. Also, the “Change in fresh weight” value in the experiment with radish cotyledons [1] (NAPE-2 20 mg/L, kinetin 0.2 mg/l, 2 mM PB pH 6.0, 25° C., 72 hours, n = 3) was 18.90 ± 1.74 mg and 21.37 ± 1.09 mg and 22.52 ± 3.42 mg. Moreover, in the experiment on radish cotyledons [1] (setting [6]), the “Change in fresh weight, % of control” value was 110 % of control and 108 % of control; the Chlorophyll a/b worked out at 1.82. The “Increase of cotyledon fresh weight” value in the experiment with radish cotyledons [1] (summary of Table 1) is “about 10%”.
